Assay results: article PMC10610311, “Eugenol: In Vitro and In Ovo Assessment to Explore Cytotoxic Effects on Osteosarcoma and Oropharyngeal Cancer Cells” (Plants, 2023)

What was measured:
[1] = system: Detroit-562 (oropharynx squamous carcinoma cells); assay: MTT cell viability assay, Detroit-562; assay type: cell-based; conditions: Homo sapiens, 72 h, read-out: cell viability (normalized to control)
Procedure: (§1) The present study was performed on two human cancer cell lines—SAOS-2 (osteosarcoma cells) and Detroit-562 (oropharynx squamous carcinoma cells), respectively, which were received from ATCC in the form of frozen vials. SAOS-2 cells were cultured in DMEM, while Detroit-562 cells were cultured using EMEM. Both media contained 10% FCS and 1% penicillin (100 U/mL)–streptomycin (100 μg/mL) mixture. Over the course of the experiments, the cells were incubated at 37 °C and 5% CO2.
(§2) A colorimetric approach—the MTT [[…])-2,5-diphenyltetrazolium bromide] assay, was used to determine cell viability. This was accomplished by cultivating the cells in 96-well plates at a density of 1x10^4 cells per well. Upon achieving a confluence of approximately 90%, the cells were stimulated for 72 h with five concentrations of Eug (0.1; 0.25; 0.5; 0.75 and 1 mM). The Eug solutions were prepared by diluting stock solution in culture medium. After this time interval, 10 μL of MTT reagent was added to each well, and the cells were incubated for three hours at 37 °C. To solubilize the MTT formazan crystals, 100 μL of solubilizer were added to each well, and after 30 min, the absorbance was measured at 570 nm using Cytation 5 (BioTek Instruments Inc., Winooski, VT, USA).

Detroit-562 cells [2] = assay: RealTime-Glo Annexin V Apoptosis and Necrosis Assay, Detroit-562; assay type: cell-based, human; conditions: Detroit-562, Eug 0.5 mM, 0-72 h
Procedure: (§3) To confirm the apoptotic effect of Eug 0.5 mM in Saos-2 and Detroit-562 cells, the RealTime-Glo™ Annexin V Apoptosis and Necrosis Assay was performed according to the manufacturer’s protocol. In brief, the cells were cultured in solid white bottom 96-well plates (Costar® 3917) and treated with Eug. The prepared 2X Detection Reagent that contained Annexin V NanoBiT™ Substrate, Annexin V-SmBiT, Annexin V-LgBiT, CaCl2, and Necrosis Detection Reagent was added in each well and the plates were shaken for 30 s at 500 rpm. The luminescence and fluorescence (excitation 485 ± 20 nm, and emission 525 ± 30 nm) were recorded at different time points (0, 6, 12, 24, 48, and 72 h post-treatment) using Cytation 5. Background signals (from no-cell wells) that were subtracted from the wells that contained cells.

SAOS-2 cells [3] = assay: DAPI nuclear morphology / apoptotic index, SAOS-2; assay type: cell-based, human; conditions: 72 h
Procedure: (§4) Using immunofluorescence, it was possible to provide further details regarding Eug’s effects on osteosarcoma and oropharynx squamous carcinoma nuclei. The technique was performed for cells stimulated with Eug 0.5 and 1 mM for 72 h. The applied protocol assumed the following stages: (i) culturing the cells in 12-well plates and stimulating them after reaching the desired confluence with Eug 0.5 and 1 mM for 72 h; (ii) washing with PBS and fixing the cells with 4% paraformaldehyde; (iii) permeabilization with Triton X 0.2%; (iv) blocking the permeabilization with a FCS solution in Triton X 0.01%; and (v) adding DAPI for 15 min. The pictures were then taken with Cytation 1 and processed using Gen5™ Micro-plate Data Collection and Analysis Software v. 3.12 (BioTek® Instruments Inc., Winooski, VT, USA). For a quantitative analysis of the Eug impact at the cellular level, the cell apoptosis index (AI) was calculated using the previously described formula [76]: AI=Number of apoptotic cells/Total number of cells×100
(§5) In accordance with the published protocols, the nuclear morphology was evaluated using ImageJ software v.6 [77].

[4] = system: gingival fibroblasts (HGF); design: method as in PMID 36675971, doi:10.31925/farmacia.2023.2.8; conditions: same concentration and time interval as current study; cited from earlier work
SAOS-2 cells [5] = assay: Cellular morphology evaluation (bright field), SAOS-2; assay type: cell-based, human; conditions: SAOS-2, concentrations higher than 0.1 mM, 72 h
Procedure: (§6) As a means of determining the impact of Eug on the morphology of cells, the microscopic evaluation of SAOS-2 and Detroit-562 cells was carried out after exposure for 72 h. The changes were observed under bright field illumination with the help of the Olympus IX73 inverted microscope (Olympus, Tokyo, Japan), and the processing of the images for the purpose of analysis was carried out by means of CellSens Dimensions v.17 Software (Olympus, Tokyo, Japan).

[6] = system: Bax, Bad, Bcl-2 mRNA in SAOS-2 cells; assay: RT-PCR expression of apoptosis-related genes, SAOS-2; assay type: cell-based, human; conditions: SAOS-2, Eug 0.5 mM, 72 h, normalized to 18S
Procedure: (§7) To investigate the potential cell-death mechanism induced by Eug 0.5 mM in SAOS-2 and Detroit-562 cells, the expression of pro-apoptotic (Bax, Bad) and anti-apoptotic (Bcl-2) markers was evaluated using the real-time reverse transcription–polymerase chain reaction (RT-PCR) technique after 72 h of treatment. RNA extraction was performed using the Quick-RNA Miniprep Kit (Zymo Research, Irvine, CA, USA), and the amount of extracted RNA was measured with the DS-11 spectrophotometer (DeNovix, Wilmington, DE, USA). The cDNA was produced using the Maxima® First Strand cDNA Synthesis Kit, and the RT-qPCR quantification was performed using a Quant Studio 5 real-time PCR system (Thermo Fisher Scientific, Inc., Waltham, MA, USA) and Power SYBR-Green PCR Master Mix (Thermo Fisher Scientific, Inc., Waltham, MA, USA).

SAOS-2 cells [7] = assay: RealTime-Glo Annexin V Apoptosis and Necrosis Assay, SAOS-2; assay type: cell-based, human; conditions: SAOS-2, Eug 0.5 mM, 0-72 h
Procedure: as §3

[8] = system: chorioallantoic membrane of hen's eggs; assay: Hen's Egg Test - Chorioallantoic Membrane (HET-CAM); assay type: in vivo, Gallus gallus domesticus; design: key to IS (irritation score): IS = 5×(301−H)/300 + 7×(301−L)/300 + 9×(301−C)/300; tH, time at which hemorrhage was established / tL, time at which vascular lysis was established / tC, time at which intravascular coagulation was established: unit not given here; conditions: Eug 1 mM / SDS 1%, monitored 5 min; for IS (irritation score): 600 µL on CAM
Procedure: The irritant and toxic potential of Eug (1 mM) at the vascular level was assessed by performing the HET-CAM assay, as previously described. In brief, several steps were followed: […] (ii) on day 4 after incubation, a perforation was made in each egg to extract 6 to 7 mL of albumen; (iii) on the next day of incubation, a window was cut in the upper part of the eggs to facilitate the visualization of the blood vessels, and was covered using adhesive tape; (iv) on day 10 of incubation, 600 µL of each sample (negative control—H2O, positive control—SDS 1%, and Eug 1 mM) were added to the chorioallantoic membrane; (v) the compounds’ ability to produce hemorrhage (H), vascular lysis (L), and coagulation was monitored for 5 min, taking photos (using the Discovery 8 Stereomicroscope from Zeiss, Göttingen, Germany and the Zeiss Axio CAM 105 color camera) prior to the addition of the samples (T0) and at the end of the 5 min period (T5); and (vi) the irritation score (IS) was finally determined for each sample, according to the following formula: IS=5×301−H/300+7×301−L/300+9×301−C/300, where IS = irritation score, H—the time at which the hemorrhage was observed, L—the time at which vascular lysis occurred and C—the time at which intravascular coagulation was established.

[9] = system: SAOS-2 (human osteosarcoma cells); assay: MTT cell viability assay, SAOS-2; assay type: cell-based; conditions: 72 h, read-out: cell viability (normalized to control)
Procedure: as §1, §2

keratinocytes (HaCaT) = conditions: cited from earlier work
[10] = system: caspases 3/7, 8, and 9 in Detroit-562 cells; assay: Caspase-Glo caspase-3/7, -8, -9 activity, Detroit-562; assay type: cell-based, human; conditions: Detroit-562, Eug 0.5 mM, 72 h
Procedure: (§8) The activity of caspases 3/7, 8, and 9 was determined after the SAOS-2 and Detroit-562 cells’ 72 h treatment with Eug 0.5 mM, using the Caspase-Glo Kit provided by Promega, Madison, WI, USA. The plates were first equilibrated at room temperature for 30 min, then, the Caspase-Glo reagent (100 μL/well) was added. The plates were shaken for 30 s on a plate shaker and maintained at room temperature for another 2 h. Finally, the luminescence was measured on Cytation 5 (BioTek Instruments Inc., Winooski, VT, USA).

Detroit-562 cells [11] = assay: DAPI nuclear morphology / apoptotic index, Detroit-562; assay type: cell-based, human; conditions: 72 h
Procedure: as §4, §5

Detroit-562 cells [12] = assay: Cellular morphology evaluation (bright field), Detroit-562; assay type: cell-based, human; conditions: Detroit-562, Eug 0.1 mM, 72 h, vs control
Procedure: as §6

[13] = system: colorectal carcinoma cells (HCT-116); design: method as in doi:10.31925/farmacia.2023.2.8; conditions: HCT-116, Eug between 0.1 and 1 mM; cited from earlier work
[14] = system: tongue squamous carcinoma cells (SCC4); design: method as in PMID 36675971; conditions: SCC4, Eug between 0.1 and 1 mM; cited from earlier work
[15] = system: Bax, Bad, Bcl-2 mRNA in Detroit-562 cells; assay: RT-PCR expression of apoptosis-related genes, Detroit-562; assay type: cell-based, human; conditions: Detroit-562, Eug 0.5 mM, 72 h, normalized to 18S
Procedure: as §7

[16] = system: caspases 3/7, 8, and 9 in SAOS-2 cells; assay: Caspase-Glo caspase-3/7, -8, -9 activity, SAOS-2; assay type: cell-based, human; conditions: SAOS-2, Eug 0.5 mM, 72 h
Procedure: as §8

SAOS-2 cells [17] = system: SAOS-2 cells; design: method as in PMID 26929741; conditions: SAOS-2, 100 μM; cited from earlier work
[18] = SAOS-2, Eug 0.5 and 1 mM, vs control
[19] = Detroit-562, Eug 0.5 and 1 mM, vs control

## C=CCc1ccc(O)c(OC)c1 [Eug, 4-alil-2-metoxifenol]
[1]; Detroit-562, Eug 0.1 mM
  viability at 100 µM: 89%
[1]; Detroit-562, Eug 1 mM
  viability at 1000 µM: 37%
Detroit-562 cells [2]
  luminescence signal (phosphatidylserine externalization), preceding the fluorescence increase: time-dependent increase
SAOS-2 cells [3]; SAOS-2, Eug 0.5 mM, DAPI
  apoptotic index (AI): 25%
SAOS-2 cells [3]; [18]
  nucleus area: decreased significantly
  nucleus circumference: decreased significantly
[4]
  decrease in cell viability: ≤ 70%
SAOS-2 cells [5]
  impact on cellular shape and confluence: significant impact
[6]
  expression of anti-apoptotic marker Bcl-2 (mRNA): decreasing
  expression of pro-apoptotic marker Bad (mRNA): significantly increasing
  expression of pro-apoptotic marker Bax (mRNA): significantly increasing
SAOS-2 cells [7]
  luminescence signal (phosphatidylserine externalization), preceding the fluorescence increase: time-dependent increase
[8]
  IS (irritation score): 1.69
  tC, time at which intravascular coagulation was established: 263
  tH, time at which hemorrhage was established: 300
  tL, time at which vascular lysis was established: 278
[9]; SAOS-2, Eug 0.1 mM
  viability at 100 µM: 92%
[9]; SAOS-2, Eug 1 mM
  viability at 1000 µM: 41%
Keratinocytes (HaCaT); HaCaT, same concentration and time interval as current study
  decrease in cell viability: ≤ 70%
[10]
  activation of caspase 3/7: significant increase
  activation of caspase 8: significant increase
  activation of caspase 9: significant increase
Detroit-562 cells [11]; Detroit-562, Eug 0.5 mM, DAPI
  apoptotic index (AI): 30%
Detroit-562 cells [11]; [19]
  nucleus area: decreased significantly
  nucleus circumference: decreased significantly
Detroit-562 cells [12]
  changes in aspect or confluence of cells: no significant changes
[13]
  decrease in cell viability: up to 34%
[14]
  cell viability (in words): dose-dependent decrease
[15]
  expression of anti-apoptotic marker Bcl-2 (mRNA): decreasing
  expression of pro-apoptotic marker Bad (mRNA): significantly increasing
  expression of pro-apoptotic marker Bax (mRNA): significantly increasing
[16]
  activation of caspase 3/7: significant increase
  activation of caspase 8: significant increase
  activation of caspase 9: significant increase

## CCCCCCCCCCCCOS(=O)(=O)[O-].[Na+] [SDS, sodium dodecyl sulfate, reference compound]
[8]
  IS (irritation score): 19.87
  tC, time at which intravascular coagulation was established: 15
  tH, time at which hemorrhage was established: 21
  tL, time at which vascular lysis was established: 17

## CN(Cc1cnc2nc(N)nc(N)c2n1)c1ccc(C(=O)N[C@@H](CCC(=O)O)C(=O)O)cc1 [methotrexate, reference compound]
Keratinocytes (HaCaT); non-tumor cells HaCaT, methotrexate more pronounced
  cell viability (in words): reduced cell viability in a dose-dependent manner
SAOS-2 cells [17]
  cell viability: below 20%
